Experimental data taken from ChEMBL document CHEMBL1201861, “Genomics of Drug Sensitity in Cancer screening data, Wellcome Trust Sanger Institute”.

What was measured:
Experiment in all cases: cells
[1] = test system: COLO-792; assay type: functional, cell-based, Homo sapiens; details: Homo sapiens, COLO-792
Description: SANGER: Inhibition of human COLO-792 cell growth in a cell viability assay.

[2] = test system: COLO-824; assay type: functional, cell-based, Homo sapiens; details: Homo sapiens, COLO-824
Description: SANGER: Inhibition of human COLO-824 cell growth in a cell viability assay.

[3] = test system: COR-L23; assay type: functional, cell-based, Homo sapiens; details: Homo sapiens, COR-L23;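 note: cell viability assay measuring how strongly compounds suppress growth of COR-L23 cells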
Description: SANGER: Inhibition of human COR-L23 cell growth in a cell viability assay.

[4] = test system: D-247MG; assay type: functional, cell-based, Homo sapiens; details: Homo sapiens, D-247MG
Description: SANGER: Inhibition of human D-247MG cell growth in a cell viability assay.

[5] = test system: ES1; assay type: functional, cell-based, Homo sapiens; details: Homo sapiens, ES1;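 note: growth inhibition of ES1 cells, read out with a cell viability assay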
Description: SANGER: Inhibition of human ES1 cell growth in a cell viability assay.

[6] = test system: ESS-1; assay type: functional, cell-based, Homo sapiens; details: Homo sapiens, ESS-1;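 note: growth inhibition of human ESS-1 cells, read out by a cell viability assay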
Description: SANGER: Inhibition of human ESS-1 cell growth in a cell viability assay.

[7] = test system: EOL1; assay type: functional, cell-based; details: Homo sapiens;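 note: growth inhibition of EoL-1 cells, read out by a cell viability assay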
Description: SANGER: Inhibition of human EoL-1-cell cell growth in a cell viability assay.

[8] = test system: HCC1187; assay type: functional, cell-based, Homo sapiens; details: Homo sapiens, HCC1187;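 note: growth inhibition of HCC1187 cells, read out with a cell viability assay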
Description: SANGER: Inhibition of human HCC1187 cell growth in a cell viability assay.

[9] = test system: HCC1395; assay type: functional, cell-based, Homo sapiens; details: Homo sapiens, HCC1395;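 note: growth inhibition of HCC1395 cells, read out by a cell viability assay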
Description: SANGER: Inhibition of human HCC1395 cell growth in a cell viability assay.

[10] = test system: J-RT3-T3-5; assay type: functional, cell-based; details: Homo sapiens;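 note: cell viability assay measuring growth inhibition of human J-RT3-T3-5 cells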
Description: SANGER: Inhibition of human J-RT3-T3-5 cell growth in a cell viability assay.

[11] = test system: JVM-3; assay type: functional, cell-based; details: Homo sapiens;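 note: growth inhibition of human JVM-3 cells, read out with a cell viability assay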
Description: SANGER: Inhibition of human JVM-3 cell growth in a cell viability assay.

[12] = test system: KINGS-1; assay type: functional, cell-based, Homo sapiens; details: Homo sapiens, KINGS-1;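 note: cell viability assay measuring suppression of KINGS-1 cell growth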
Description: SANGER: Inhibition of human KINGS-1 cell growth in a cell viability assay.

[13] = test system: KNS-42; assay type: functional, cell-based, Homo sapiens; details: Homo sapiens, KNS-42;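 note: growth inhibition of KNS-42 cells, read out with a cell viability assay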
Description: SANGER: Inhibition of human KNS-42 cell growth in a cell viability assay.

[14] = test system: KS-1; assay type: functional, cell-based, Homo sapiens; details: Homo sapiens, KS-1;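 note: growth inhibition of KS-1 cells, read out with a cell viability assay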
Description: SANGER: Inhibition of human KS-1 cell growth in a cell viability assay.

[15] = test system: KYSE-70 cell line; assay type: functional, cell-based, Homo sapiens; details: Homo sapiens, KYSE-70;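 note: cell viability assay read-out, with IC50 expressing suppression of KYSE-70 cell growth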
Description: SANGER: Inhibition of human KYSE-70 cell growth in a cell viability assay.

[16] = test system: LAN-6; assay type: functional, cell-based, Homo sapiens; details: Homo sapiens, LAN-6;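 note: growth inhibition of LAN-6 cells, determined with a cell viability assay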
Description: SANGER: Inhibition of human LAN-6 cell growth in a cell viability assay.

[17] = test system: LB373-MEL-D; assay type: functional, cell-based, Homo sapiens; details: Homo sapiens, LB373-MEL-D;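 note: growth inhibition of the cell line, read out in a cell viability assay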
Description: SANGER: Inhibition of human LB373-MEL-D cell growth in a cell viability assay.

[18] = test system: LN-405; assay type: functional, cell-based, Homo sapiens; details: Homo sapiens, LN-405
Description: SANGER: Inhibition of human LN-405 cell growth in a cell viability assay.

[19] = test system: MG-63; assay type: functional, cell-based, Homo sapiens; details: Homo sapiens, MG-63;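 note: growth inhibition of human MG-63 cells, read out with a cell viability assay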
Description: SANGER: Inhibition of human MG-63 cell growth in a cell viability assay.

[20] = test system: MPP-89; assay type: functional, cell-based, Homo sapiens; details: Homo sapiens, MPP-89;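 note: growth inhibition of human MPP-89 cells, read out with a cell viability assay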
Description: SANGER: Inhibition of human MPP-89 cell growth in a cell viability assay.

[21] = test system: NB5; assay type: functional, cell-based, Homo sapiens; details: Homo sapiens, NB5;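 note: growth inhibition of NB5 cells, read out as cell viability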
Description: SANGER: Inhibition of human NB5 cell growth in a cell viability assay.

[22] = test system: NCI-H2087; assay type: functional, cell-based, Homo sapiens; details: Homo sapiens, NCI-H2087;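 note: growth inhibition determined with a cell viability readout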
Description: SANGER: Inhibition of human NCI-H2087 cell growth in a cell viability assay.

[23] = test system: NCI-H2347; assay type: functional, cell-based, Homo sapiens; details: Homo sapiens, NCI-H2347;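 note: growth inhibition of the cell line, read out with a cell viability assay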
Description: SANGER: Inhibition of human NCI-H2347 cell growth in a cell viability assay.

[24] = test system: NCI-H2405; assay type: functional, cell-based, Homo sapiens; details: Homo sapiens, NCI-H2405;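 note: growth inhibition of the human cell line, read out with a cell viability assay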
Description: SANGER: Inhibition of human NCI-H2405 cell growth in a cell viability assay.

[25] = test system: NCI-H292; assay type: functional, cell-based, Homo sapiens; details: Homo sapiens, NCI-H292;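 note: growth inhibition of NCI-H292 cells, read out with a cell viability assay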
Description: SANGER: Inhibition of human NCI-H292 cell growth in a cell viability assay.

[26] = test system: NCI-H358; assay type: functional, cell-based, Homo sapiens; details: Homo sapiens, NCI-H358;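 note: growth inhibition of NCI-H358 human cells, read out with a cell viability assay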
Description: SANGER: Inhibition of human NCI-H358 cell growth in a cell viability assay.

[27] = test system: NCI-H661; assay type: functional, cell-based, Homo sapiens; details: Homo sapiens, NCI-H661;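 note: cell viability assay read-out, IC50 being the concentration that inhibits growth of the cells by half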
Description: SANGER: Inhibition of human NCI-H661 cell growth in a cell viability assay.

[28] = test system: NCI-H82; assay type: functional, cell-based; details: Homo sapiens;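 note: growth inhibition of NCI-H82 cells, measured with a cell viability readout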
Description: SANGER: Inhibition of human NCI-H82 cell growth in a cell viability assay.

[29] = test system: NKM-1; assay type: functional, cell-based; details: Homo sapiens;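 note: growth inhibition of NKM-1 cells, read out with a cell viability assay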
Description: SANGER: Inhibition of human NKM-1 cell growth in a cell viability assay.

[30] = test system: OCUB-M; assay type: functional, cell-based, Homo sapiens; details: Homo sapiens, OCUB-M;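 note: growth inhibition of the cancer cell line, read out through a cell viability assay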
Description: SANGER: Inhibition of human OCUB-M cell growth in a cell viability assay.

[31] = test system: OVCAR-8; assay type: functional, cell-based, Homo sapiens; details: Homo sapiens, OVCAR-8;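 note: growth inhibition of human OVCAR-8 cells, read out by a cell viability assay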
Description: SANGER: Inhibition of human OVCAR-8 cell growth in a cell viability assay.

[32] = test system: RVH-421; assay type: functional, cell-based, Homo sapiens; details: Homo sapiens, RVH-421
Description: SANGER: Inhibition of human RVH-421 cell growth in a cell viability assay.

[33] = test system: SAS; assay type: functional, cell-based, Homo sapiens; details: Homo sapiens, SAS;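 note: growth inhibition of SAS cells, read out with a cell viability assay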
Description: SANGER: Inhibition of human SAS cell growth in a cell viability assay.

[34] = test system: SF-126; assay type: functional, cell-based, Homo sapiens; details: Homo sapiens, SF-126;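 note: growth inhibition of human SF126 cells, read out with a cell viability assay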
Description: SANGER: Inhibition of human SF126 cell growth in a cell viability assay.

[35] = test system: SK-LU-1; assay type: functional, cell-based, Homo sapiens; details: Homo sapiens, SK-LU-1;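 note: cell viability assay measuring growth inhibition of human SK-LU-1 cells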
Description: SANGER: Inhibition of human SK-LU-1 cell growth in a cell viability assay.

[36] = test system: SW1990; assay type: functional, cell-based, Homo sapiens; details: Homo sapiens, SW1990;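 note: cell growth inhibition determined with a viability assay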
Description: SANGER: Inhibition of human SW1990 cell growth in a cell viability assay.

[37] = test system: SW626; assay type: functional, cell-based, Homo sapiens; details: Homo sapiens, SW626;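 note: growth inhibition of SW626 cells, measured with a cell viability assay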
Description: SANGER: Inhibition of human SW626 cell growth in a cell viability assay.

[38] = test system: SW872; assay type: functional, cell-based, Homo sapiens; details: Homo sapiens, SW872;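 note: growth inhibition of SW872 cells, read out by a viability assay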
Description: SANGER: Inhibition of human SW872 cell growth in a cell viability assay.

[39] = test system: SAOS-2; assay type: functional, cell-based, Homo sapiens; details: Homo sapiens, SAOS-2;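 note: growth inhibition of human Saos-2 cells determined by a cell viability assay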
Description: SANGER: Inhibition of human Saos-2 cell growth in a cell viability assay.

[40] = test system: TCC-SUP; assay type: functional, cell-based, Homo sapiens; details: Homo sapiens, TCC-SUP;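 note: growth inhibition of TCC-SUP cells, read out with a cell viability assay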
Description: SANGER: Inhibition of human TCCSUP cell growth in a cell viability assay.

[41] = test system: ACN; assay type: functional, cell-based, Homo sapiens; details: Homo sapiens, ACN;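 note: growth inhibition of the human ACN cell line, read out via cell viability testing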
Description: SANGER: Inhibition of human ACN cell growth in a cell viability assay.

[42] = test system: AN3-CA; assay type: functional, cell-based; details: Homo sapiens;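 note: growth inhibition of human AN3-CA cells measured by a cell viability assay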
Description: SANGER: Inhibition of human AN3-CA cell growth in a cell viability assay.

[43] = test system: BPH-1; assay type: functional, cell-based, Homo sapiens; details: Homo sapiens, BPH-1;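 note: cell viability assay measuring growth inhibition of human BPH-1 cells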
Description: SANGER: Inhibition of human BPH-1 cell growth in a cell viability assay.

[44] = test system: C32; assay type: functional, cell-based, Homo sapiens; details: Homo sapiens, C32;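 note: cell viability assay, with IC50 reflecting inhibition of C32 cell growth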
Description: SANGER: Inhibition of human C32 cell growth in a cell viability assay.

[45] = test system: C3A; assay type: functional, cell-based, Homo sapiens; details: Homo sapiens, C3A;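 note: growth inhibition of C3A human cells, quantified with a cell viability readout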
Description: SANGER: Inhibition of human C3A cell growth in a cell viability assay.

[46] = test system: CAKI-1; assay type: functional, cell-based, Homo sapiens; details: Homo sapiens, CAKI-1;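 note: growth inhibition of CAKI-1 cells, measured by a cell viability assay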
Description: SANGER: Inhibition of human CAKI-1 cell growth in a cell viability assay.

[47] = test system: CAL-62; assay type: functional, cell-based, Homo sapiens; details: Homo sapiens, CAL-62;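 note: growth inhibition of CAL-62 cells, read out with a cell viability assay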
Description: SANGER: Inhibition of human CAL-62 cell growth in a cell viability assay.

[48] = test system: CAL-85-1; assay type: functional, cell-based; details: Homo sapiens;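 note: growth inhibition of human CAL-85-1 cells, read out with a cell viability assay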
Description: SANGER: Inhibition of human CAL-85-1 cell growth in a cell viability assay.

[49] = test system: TE-8; assay type: functional, cell-based, Homo sapiens; details: Homo sapiens, TE-8;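 note: growth inhibition of TE-8 cells, measured with a cell viability readout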
Description: SANGER: Inhibition of human TE-8 cell growth in a cell viability assay.

[50] = test system: no-10; assay type: functional, cell-based, Homo sapiens; details: Homo sapiens;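 note: growth inhibition of no-10 cells, read out with a cell viability assay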
Description: SANGER: Inhibition of human no-10 cell growth in a cell viability assay.

[51] = test system: SiHa; assay type: functional, cell-based, Homo sapiens; details: Homo sapiens, SiHa;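 note: Viability-based readout of growth inhibition in SiHa cells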
Description: SANGER: Inhibition of human SiHa cell growth in a cell viability assay.

CC(=O)O[C@@H]1[C@@H](OC(C)=O)[C@@H](O)[C@H](Oc2c(-c3ccc(O)cc3)oc3cc(O)cc(O)c3c2=O)O[C@H]1C
IC50 [1]: > 10 µM | IC50 [2]: > 10 µM | IC50 [3]: > 10 µM | IC50 [4]: > 10 µM | IC50 [5]: > 10 µM | IC50 [6]: > 10 µM | IC50 [7]: > 10 µM | IC50 [8]: > 10 µM | IC50 [9]: > 10 µM | IC50 [10]: > 10 µM | IC50 [11]: > 10 µM | IC50 [12]: > 10 µM | IC50 [13]: > 10 µM | IC50 [14]: > 10 µM | IC50 [15]: > 10 µM | IC50 [16]: > 10 µM | IC50 [17]: > 10 µM | IC50 [18]: > 10 µM | IC50 [19]: > 10 µM | IC50 [20]: > 10 µM | IC50 [21]: > 10 µM | IC50 [22]: > 10 µM | IC50 [23]: > 10 µM | IC50 [24]: > 10 µM | IC50 [25]: > 10 µM | IC50 [26]: > 10 µM | IC50 [27]: > 10 µM | IC50 [28]: 5.06 µM | IC50 [29]: > 10 µM | IC50 [30]: > 10 µM | IC50 [31]: > 10 µM | IC50 [32]: > 10 µM | IC50 [33]: > 10 µM | IC50 [34]: > 10 µM | IC50 [35]: > 10 µM | IC50 [36]: > 10 µM | IC50 [37]: > 10 µM | IC50 [38]: > 10 µM | IC50 [39]: > 10 µM | IC50 [40]: > 10 µM | IC50 [41]: > 10 µM | IC50 [42]: > 10 µM | IC50 [43]: > 10 µM | IC50 [44]: > 10 µM | IC50 [45]: > 10 µM | IC50 [46]: > 10 µM | IC50 [47]: > 10 µM | IC50 [48]: > 10 µM | IC50 [49]: > 10 µM | IC50 [50]: > 10 µM

COc1cc(F)c(F)c(Nc2ccc(I)cc2F)c1NS(=O)(=O)C1(CC(O)CO)CC1 (stereo not given)
IC50 [1]: 0.761 µM | IC50 [2]: > 5 µM | IC50 [3]: 2.78 µM | IC50 [4]: > 5 µM | IC50 [5]: > 5 µM | IC50 [6]: > 5 µM | IC50 [7]: 0.399 µM | IC50 [8]: > 5 µM | IC50 [9]: > 5 µM | IC50 [10]: > 5 µM | IC50 [11]: 4.38 µM | IC50 [12]: 2.69 µM | IC50 [13]: > 5 µM | IC50 [14]: 1.26 µM | IC50 [15]: > 5 µM | IC50 [16]: 0.521 µM | IC50 [18]: > 5 µM | IC50 [19]: 2.82 µM | IC50 [20]: > 5 µM | IC50 [21]: 0.978 µM | IC50 [22]: 2.42 µM | IC50 [23]: 0.868 µM | IC50 [24]: 1.87 µM | IC50 [25]: 0.64 µM | IC50 [26]: > 5 µM | IC50 [27]: > 5 µM | IC50 [28]: > 5 µM | IC50 [29]: 2.43 µM | IC50 [30]: > 5 µM | IC50 [31]: > 5 µM | IC50 [32]: 0.0335 µM | IC50 [33]: 3.94 µM | IC50 [34]: > 5 µM | IC50 [35]: > 5 µM | IC50 [36]: > 5 µM | IC50 [37]: 0.279 µM | IC50 [38]: 0.774 µM | IC50 [39]: > 5 µM | IC50 [51]: > 5 µM | IC50 [40]: > 5 µM | IC50 [41]: 0.0651 µM | IC50 [42]: > 5 µM | IC50 [43]: 0.135 µM | IC50 [44]: 0.0572 µM | IC50 [45]: > 5 µM | IC50 [46]: > 5 µM | IC50 [47]: 0.682 µM | IC50 [48]: 3.57 µM | IC50 [49]: 1.12 µM | IC50 [50]: > 5 µM
